Patent US6492329B1, “Cytokine and hemopoietic factor endogenous production enhancer and methods of use thereof” (Novelos Therapeutics, Inc., priority 1995, dated 2002)

Key:
[1] = tested on: e-ras cells after UV-irradiation; experiment: Number of clones of e-ras cells after UV-irradiation; type: cell-based, rat
Method: (§1) To this end, these substances had been incubated for 72 hours with cells of rat embrional fibroblasts (REF) and the same cells, transformed with adenoviral E1A gene in complementation with ras-oncogene (e-ras cell line). Subsequent evaluation of the cellularity of experimental samples was carried out by counting the quantity of cell per milliliter (for REF cell line) or clones in dish (for e-ras cell line).
(§2) Cells were cultivated on DMEM medium supplemented with 10% fetal calf serum and […] gentamicin. Cultivation was carried out in Petri dishes.
(§3) E-ras cells were seeded at a cell density of 300 cells per 5 cm dish. 7 days after growth of e-ras cells had been started the quantity of clones was evaluated and the test articles were added into the dishes.
(§4) For the test-system for estimation of apoptosis regulation UV-induced cell death was triggered in a dose of 4 Dj. Test articles were added immediately after irradiation. Then, the quantity of cell per milliliter (for REF cell line) or clones in dish (for e-ras cell line) were monitored every 24 hours. For determination of DNA-fragmentation the electrophoresis in agarose gel was used at standard settings.

[2] = tested on: rat embrional fibroblasts (REF); experiment: Number of REF cells throughout 72-hr incubation; type: cell-based
Method: as §1, §2
(§5) REF cells was cultivated with initial density of 800 000 cell per mL, evaluation of the cellularity was performed at 0, 24, 48 and 72 hours of incubation with the test articles.
as §4

[3] = tested on: rat embrional fibroblasts (REF) after UV-irradiation; experiment: Number of REF cells after UV-irradiation; type: cell-based
Method: as §1, §2, §5, §4

[4] = tested on: e-ras cell line (REF transformed with E1A and ras-oncogene); experiment: Number of clones of e-ras cells throughout 72-hr incubation; type: cell-based, rat
Method: as §1, §2, §3, §4

[5] = tested on: Erlich adenocarcinoma cells; experiment: Erlich adenocarcinoma in mice: ascitic fluid and survival (Example 14); settings: for Accumulation of ascitic (weight gain, %): Erlich adenocarcinoma
Method: (§6) An influence of 7 day course of test article daily administration was studied in respect of tumor progression, which was estimated using the two integral indices: pace of mouse weight gain due to accumulation of ascitic fluid, and by animal mean survival time after inoculation.
(§7) The study was carried out on DBA/2 mice weighing 18-21 g. First, tumor cell passage was performed using 6 animals for each cell line. For this, cells kept at the temperature of the liquid nitrogen were de-frozen and adjusted to the concentration of 5×10^6 cells/mL by sterile Hanks' solution. Then, 6 mice were intra peritoneally inoculated with 0.2 mL of each line cellular suspension.
(§8) Ascitic fluid was collected 6 days after the inoculation with L1210 cells, 8 days after the inoculation with P388 ones and 18 days after inoculation with Erlich adenocarcinoma cells. Thus obtained, the samples of passaged tumor cells were used for the main experiments. The fluid liquid was dissolved by sterile Hanks' solution so that cell concentration be 5×10^6 cells/mL for P388 cells and Erlich adenocarcinoma cells, 5×10^5 cells/mL for L1210 cells.
(§9) Eleven groups of animals with no less than 15 mice each were formed for experiments with either tumor cell line. Mice were inoculated with 0.2 mL of resultant cell suspensions per mouse (10^6 P388 and Erlich adenocarcinoma cells/mouse, and 10^5 L1210 cells/mouse). 24 hours after the tumor cells inoculation, animals were given the first injections of the test articles or vehicles. The test article injections were made daily till the 14th day of the experiment or till the animal death. The volume of solutions injected comprised 0.01 mL/g body weight.
(§10) #1—intact animals receiving imitation of tumor cell inoculation (injection of normal saline) which further were treated with normal saline throughout the entire experiment;
(§11) #2—control animals, inoculated with tumor cells, which further were treated with test article vehicle (normal saline);

[6] = tested on: leukemia L1210 cells; experiment: Leukemia L1210 in mice: ascitic fluid and survival (Example 14); settings: for Accumulation of ascitic (weight gain, %): leukemia L1210
Method: as §6, §7, §8, §9, §10, §11

NCCSSCCNC(=O)CNC(=O)C(CSSCC(NC(=O)CCC(N)C(=O)O)C(=O)NCC(=O)O)NC(=O)CCC(N)C(=O)O (stereo not shown) [S-thioethylamine-GSSG, S-thioethylamine-glutathione disulfide]
death of transformed e-ras cells after UV-irradiation [1]: potentiate death of the transformed cells
apoptosis of normal cells (REF line) ([2]; 72-hr incubation): didn't promote apoptosis of normal cells
UV-induced apoptosis of normal cells (REF line) [3]: do not promote the apoptosis of normal cells
death of transformed e-ras cells ([4]; 72-hr incubation): induce a transformed cell death

NCCSSCCNC(=O)CNC(=O)C(CSSCC(NC(=O)CCC(N)C(=O)O)C(=O)NCC(=O)O)NC(=O)CCC(N)C(=O)O (stereo not shown) [S-thioethylamine-GSSG + normal saline]
Accumulation of ascitic (weight gain, %) ([5]; number of injection 0): 0.8 ± 0.1%
Accumulation of ascitic (weight gain, %) ([5]; number of injection 3): 3.2 ± 0.6%
Accumulation of ascitic (weight gain, %) ([5]; number of injection 7): 10.2 ± 2.2%
Mean survival time ([5]; mice inoculated with Erlich adenocarcinoma cells): 16.2 ± 1.2
Accumulation of ascitic (weight gain, %) ([6]; number of injection 0): 0.77 ± 0.2%
Accumulation of ascitic (weight gain, %) ([6]; number of injection 3): 3.1 ± 0.4%
Accumulation of ascitic (weight gain, %) ([6]; number of injection 7): 92 ± 1.2%
Mean survival time ([6]; mice inoculated with leukemia L1210 cells): 19.2 ± 0.8

NCCSSCCNC(=O)CNC(=O)C(CSSCC(NC(=O)CCC(N)C(=O)O)C(=O)NCC(=O)O)NC(=O)CCC(N)C(=O)O (stereo not shown) [S-thioethylamine-GSSG in normal saline]
number of clones of e-ras cells after UV-irradiation (M ± m) ([1]; 0 hours): 286 ± 14
number of clones of e-ras cells after UV-irradiation (M ± m) ([1]; 24 hours): 182 ± 14
number of clones of e-ras cells after UV-irradiation (M ± m) ([1]; 48 hours): 116 ± 8
number of clones of e-ras cells after UV-irradiation (M ± m) ([1]; 72 hours): 82 ± 4
number of REF cells (M ± m) ([2]; 0 hours of incubation): 789 ± 21 × 10^3 cells
number of REF cells (M ± m) ([2]; 24 hours of incubation): 1422 ± 14 × 10^3 cells
number of REF cells (M ± m) ([2]; 48 hours of incubation): 2602 ± 43 × 10^3 cells
number of REF cells (M ± m) ([2]; 72 hours of incubation): 5112 ± 168 × 10^3 cells
number of REF cells after UV-irradiation (M ± m) ([3]; 0 hours): 789 ± 21 × 10^3 cells
number of REF cells after UV-irradiation (M ± m) ([3]; 24 hours): 422 ± 14 × 10^3 cells
number of REF cells after UV-irradiation (M ± m) ([3]; 48 hours): 260 ± 23 × 10^3 cells
number of REF cells after UV-irradiation (M ± m) ([3]; 72 hours): 212 ± 16 × 10^3 cells
number of clones of e-ras cells (M ± m) ([4]; 0 hours of incubation): 286 ± 14
number of clones of e-ras cells (M ± m) ([4]; 24 hours of incubation): 202 ± 14
number of clones of e-ras cells (M ± m) ([4]; 48 hours of incubation): 156 ± 10
number of clones of e-ras cells (M ± m) ([4]; 72 hours of incubation): 112 ± 12
